Measured values from patent US20210244721A1, “SMALL MOLECULE ENTEROVIRUS INHIBITORS AND USES THEREOF” (priority 2020, published 2021).
Like-named read-outs stand apart in the source and are kept apart here.

Key:
CVB3 2C protein = target: T1, CVB3 2C protein (Coxsackievirus B3, UniProt P03313); assay: Thermal shift assay (differential scanning fluorimetry); type: binding
T1 construct: CVB3 Nancy 2C (amino acids 37 to 329) protein; His tag with TEV site (inferred from the pET28a(+)-TEV vector and Ni-NTA purification); made in house; host or cells: E. coli Rosetta 2(DE3)

A172 cells = assay: Cytotoxicity in A172 cells
Protocol: (§2) The cytotoxicity of each compound was determined using the neutral red cell viability assay. The assay was performed under similar conditions (incubation temperature, time, and media) as the CPE, but excluded viral infection. Data acquisition and analysis (CC50) was performed similarly to the antiviral CPE assay, and all values are from triplicate experiments.

SH-SY5Y cells = assay: Cytotoxicity in SH-SY5Y cells
Protocol: as §2

RD cells = conditions: human, 3 days
[1] = test system: EV-D68 US/KY/14-18953 virus; assay: CPE assay, EV-D68 US/KY/14-18953 in RD cells; type: cell-based, Enterovirus D68 (EV-D68)
EV-A71 Tainan/4643/98 = assay: CPE assay, EV-A71 Tainan in RD cells; type: cell-based; conditions: Enterovirus A
EV-A71 US/AK/16-19516 = assay: CPE assay, EV-A71 US/AK in RD cells; type: cell-based; conditions: Enterovirus A, EVA71
CVB3 = assay: CPE assay, CVB3 in Vero C1008 cells; type: cell-based, coxsackievirus B3 (CVB3); conditions: Enterovirus B
EV-D68 US/MO/14-18947 = assay: CPE assay, EV-D68 US/MO/14-18947 in RD cells; conditions: EV-D68 US/MO/14-18947, RD cells
[2] = Cytotoxicity in Vero C1008 cells; conditions: African green monkey
in vitro = conditions: human
A549 = assay: Cytotoxicity in A549 cells
Protocol: as §2

HeLa = assay: Cytotoxicity in HeLa cells
Protocol: as §2

[3] = test system: EV-D68 viral capsid protein VP1; assay: VP1 expression by immunofluorescence imaging and western blot; type: cell-based, Enterovirus D68 (EV-D68); conditions: for VP1 protein expression: 1 μM, US/KY/14-18953 MOI=1, 9 hpi, immunofluorescence imaging and western blot
Protocol: The EV-D68 2C protein is a highly conserved viral protein that plays multiple functions in genome replication. It has been implicated in RNA replication, membrane rearrangements, encapsidation, and uncoating (see, Van der Linden, L.; et al., Viruses 2015, 7, 4529-4562). Inhibition of viral 2C protein is expected to inhibit viral RNA and protein synthesis.
Total proteins were extracted at 9 hpi using RAPI lysis buffer [50 mM Tris (pH 8.0), 1% NP-40, 0.1% SDS, 150 mM NaCl, 0.5% Sodium deoxycholate, 5 mM EDTA, 10 mM NaF, 10 mM NaPPi, […] 1 mM PMSF]. Equal amount of extracted total proteins were separated by electrophoresis and transferred to a polyvinylidene difluoride (PVDF) membrane. Viral protein VP1 or host GAPDH was recognized by rabbit anti-VP1 (GeneTex: GTX132313; 1:3,000 dilution) or mouse anti-GAPDH antibody (EMD Millipore: MAB374; 1:3,000 dilution), respectively, followed by detection using Horse radish peroxidase (HRP)-conjugated secondary antibody (ThermoFisher Scientific: 32430 or 656120; 1:3,000 dilutions) and Supersignal West Femto substrate (ThermoFisher Scientific).
At 9 hpi, infected cells were fixed with 4% formaldehyde for 10 min followed by permeabilization with 0.2% Triton X-100 for another 10 min. After blocking with 10% bovine serum, cells were stained with rabbit anti-VP1 antibody (GeneTex: GTX132313) and followed by staining with anti-rabbit secondary antibody conjugated to Alexa-488 (ThermoFisher Scientific). Nucleus were stained with 300 nM DAPI (ThermoFisher Scientific) after secondary antibodies incubation. Fluorescent images were acquired using a Leica SP5-II spectral Confocal Microscope (Leica).

[4] = test system: influenza A virus A/California/07/2009 (H1N1); assay: Plaque assay, influenza A virus; type: cell-based; conditions: 10 μM
Protocol: (§1) Plaque assay was performed using the condition described previously (see, Wang, Y.; et al., J. Med. Chem. 2018, 61, 1074-1085). […] Oseltamivir carboxylate was included as a positive control and was tested at 200 nM.

[5] = test system: influenza B virus B/Brisbane/60/2008 (Victoria); assay: Plaque assay, influenza B virus; type: cell-based; conditions: 10 μM
Protocol: as §1

sodium channels = assay: Sodium flux assay in DRG neurons; conditions: rat DRG neurons, veratridine
Protocol: In this assay, rat dorsal root ganglia (DRG) neurons were incubated with various concentrations of testing compounds. Sodium channels were then activated by the sodium channel agonist veratridine. The resulting sodium flux was measured indirectly by quantifying the sodium channel triggered calcium flux, which was measured by a calcium-specific fluorescence dye (FIG. 4).
Dorsal root ganglion neurons were prepared as previously described^27 and were loaded for 30 minutes at 3TC with 3 μM Fura-2AM (Cat #F1221, Thermo Fisher, stock solution prepared at 1 mM in DMSO, 0.02% pluronic acid, Cat #P-3000MP, Life technologies) to follow changes in intracellular calcium ([Ca^2+]c) in a standard bath solution containing 139 mM NaCl, 3 mM KCl, 0.8 mM MgCl2, 1.8 mM CaCl2, 10 mM Na HEPES, pH 7.4, 5 mM glucose exactly as previously described^28 Fluorescence imaging was performed with an inverted microscope, NikonEclipseTi-U (Nikon Instruments Inc., Melville, N.Y.), using objective Nikon Fluor 4X and a Photometrics cooled CCD camera Cool SNAP ES^2 (Roper Scientific, Tucson, Ariz.) controlled by Nis Elements software (version 4.20, Nikon Instruments). […] Fluorescence was recorded through a 505-nm dichroic mirror at 535±25 nm. […] The changes in [Ca^2+]c were monitored by following a ratio of F340/F380, calculated after subtracting the background from both channels. […]

[6] = Mouse microsomal stability; type: in vitro ADME; conditions: mouse liver microsomes
Protocol: Test compounds were incubated at 37° C. with liver microsomes (mouse or human) (Xenotech) at 1 μM drug concentration in the presence of a NADPH regenerating system at 0.5 mg/ml microsomal protein. Testosterone (3A4 substrate), Propafenone (2D6), and Diclofenac (2C9) were included as positive controls. Compounds were incubated with microsomes in the presence of a NADPH regenerating system (Sigma, Cat. No. N0505, Lot SLBH3107V). Aliquots at 0, 5, 10, 20, 30 and 60 minutes post incubation were collected and immediately mixed with cold acetonitrile containing internal standard (IS). Compounds incubated with microsomes without NADPH regenerating system for 60 minutes were also included. All the samples were analyzed by LC/MS/MS; disappearance of test compound were assessed based on peak area ratios of analyte/IS. Following equations were applied to calculate the microsome clearance: […]

[7] = EV-D68 US/KY/14-18953, RD cells, CPE assay, read-out: EC50
[8] = EVA71, EV-A71 Tainan, RD cells, read-out: EC50
[9] = CVB3, Vero C1008 cells, read-out: EC50
[10] = Enterovirus D, EVD68, RD, against five different strains of EV-D68 viruses (summary), read-out: EC50

T1 sequence (P03313 1137-1429): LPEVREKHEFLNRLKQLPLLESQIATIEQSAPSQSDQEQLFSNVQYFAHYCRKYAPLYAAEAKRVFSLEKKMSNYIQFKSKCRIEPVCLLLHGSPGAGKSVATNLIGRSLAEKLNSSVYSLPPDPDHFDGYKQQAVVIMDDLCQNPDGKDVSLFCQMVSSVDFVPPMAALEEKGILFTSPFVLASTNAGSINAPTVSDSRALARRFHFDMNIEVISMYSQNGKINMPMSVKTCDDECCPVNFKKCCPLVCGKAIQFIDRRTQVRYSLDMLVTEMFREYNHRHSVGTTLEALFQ

CNCCNC(=O)c1cc(-c2ccc(F)cc2)nc2ccccc12 [Compound 6aw, 2-(4 fluorophenyl)-N-[2-(methylamino)ethyl]quinoline-4-carboxamide]
thermal stability of CVB3 2C (CVB3 2C protein; three concentrations (10, 30 or 100 μM)): increased the thermal stability of CVB3 2C in a concentration dependent manner

CN(C)CCNC(=O)c1cc(-c2ccccc2)nc2ccccc12 [drawing 132]
CC50 (A172 cells): 88.4 µM
CC50 (SH-SY5Y cells): > 300 µM

CCCCOc1cc(C(=O)NCCN(CC)CC)c2ccccc2n1 [drawing 131]
CC50 (A172 cells): > 30 µM
CC50 (SH-SY5Y cells): > 30 µM

Cc1ccc2c(c1)c1c3n2CCNC3CCC1 (stereo not drawn) [drawing 10]
CC50 (RD cells): 19 ± 1.6 µM

NCCNC(=O)c1cc(-c2ccc(F)cc2)nc2ccccc12 [drawing 187]
EC50 [1, 7]: 0.4 µM
EC50 (EV-A71 Tainan/4643/98; [8]): 9 µM
EC50 (EV-A71 US/AK/16-19516): 14 µM
EC50 (CVB3; [9]): 0.4 µM
EC50 (EV-D68 US/MO/14-18947; Enterovirus D, EVD68, RD): 0.3 µM

CNCCC(Oc1ccc(C(F)(F)F)cc1)c1ccccc1 (stereo not drawn)
CC50 at 3 days [2]: 11 µM

CN(C)CCNC(=O)c1cc(-c2ccc(F)cc2)nc2ccccc12 [drawing 185]
EC50 [1, 7]: 0.1 µM
EC50 (EV-A71 Tainan/4643/98; [8]): 2.2 µM
EC50 (EV-A71 US/AK/16-19516): 2.3 µM
EC50 (CVB3; [9]): 0.06 µM
EC50 (EV-D68 US/MO/14-18947; Enterovirus D, EVD68, RD): 0.05 µM

O=C(NC1CN2CCC1CC2)c1cc(-c2ccccc2)nc2ccccc12 (stereo not drawn) [Compound 10c, N-{1-azabicyclo[2.2.2]octan-3-yl}-2-phenylquinoline-4-carboxamide]
CC50 (RD cells): 46.5 ± 14.7 µM

O=C(NC1C2CNCC21)c1cc(-c2cccs2)nc2ccccc12 (stereo not drawn) [Compound 6bk, N-{3-azabicyclo[3.1.0]hexan-6-yl}b-2-(thiophen-2-yl)quinoline-4-carboxamide]
SI = selectivity index (CC50/EC50) ([1]; EV-D68 US/KY/14-18953, RD cells): SI50 = 5.4
EC50 ([1]; Enterovirus D, EVD68, RD, EV-D68 US/KY/14-18953, RD cells, CPE assay, read-out: EC50): 6.4 µM
CC50 at 3 days (in vitro): 34.5 µM

CN(C)CCNC(=O)c1cc(-c2ccccc2)nc2ccccc12 [drawing 128]
EC50 [1, 7]: 0.4 µM
CC50 (A549): 121 µM
CC50 (HeLa): 68.7 µM

N=C(N)N [guanidine, reference compound]
Tm shift (CVB3 2C protein; 1 mM, CVB3 2C 4.5 μM): 1.77 °C

CN(C)CCNC(=O)c1cc(-c2cccs2)nc2ccccc12 [drawing 129]
EC50 ([1]; EV-D68 US/KY/14-18953, RD cells, CPE assay): 0.04 µM
CC50 (A549): 98.8 µM
CC50 (HeLa): 51.2 µM

CN(C)CCNC(=O)c1cc(-c2cccs2)nc2ccccc12 [Compound 12a, N-[2-(dimethylamino)ethyl]-2-(thiophen-2-yl)quinoline-4-carboxamide]
EC50 ([1]; EV-D68 US/KY/14-18953, RD cells, CPE assay, listed as 6bf): 0.04 µM
EC50 ([1]; Enterovirus D, EVD68, RD, against five different strains of EV-D68 viruses (summary)): < 1 µM
VP1 protein expression ([3]; RD cells): completely blocked
inhibition in plaque assay [4]: no inhibition
inhibition in plaque assay [5]: no inhibition

CCCCOc1cc(C(=O)NCCN(CC)CC)c2ccccc2n1 [drawing 127]
CC50 (A549): 37.5 µM
CC50 (HeLa): 36 µM

O=C(NCCN1CCCC1)c1cc(-c2cccs2)nc2ccccc12 [drawing 134]
CC50 (A172 cells): 65.4 µM
CC50 (SH-SY5Y cells): 93.3 µM

CN(C)CCNC(=O)c1cc(-c2cccs2)nc2ccccc12 [drawing 133]
CC50 (A172 cells): 73.8 µM
CC50 (SH-SY5Y cells): 136 µM

COc1ccc(CC(C)NCC(O)c2ccc(O)c(NC=O)c2)cc1 (stereo not drawn)
EC50 (EV-A71 Tainan/4643/98; EVA71, RD): > 100 µM
EC50 (CVB3; CVB3, Vero C1008): 9.9 µM
CC50 at 3 days [2]: > 300 µM

CN(C)CCNC(=O)c1cc(-c2ccccc2)nc2ccccc12 [Compound 10a, N-[2-(dimethylamino)ethyl]-2-phenylquinoline-4-carboxamide]
EC50 ([1]; Enterovirus D, EVD68, RD, Table 6, EV-D68 US/KY/14-18953, RD cells): 0.4 ± 0.2 µM
EC50 [1, 10]: < 1 µM
VP1 protein expression ([3]; RD cells): completely blocked
inhibition in plaque assay [4]: no inhibition
inhibition in plaque assay [5]: no inhibition
inhibition of sodium current conductance (sodium channels; 2 μM to 50 μM): minimal to no effect

O=C(NCCN1CCCC1)c1cc(-c2cccs2)nc2ccccc12 [Compound 12c, N-[2-(pyrrolidin-1-yl)ethyl]-2-(thiophen-2-yl)quinoline-4-carboxamide]
EC50 [1, 10]: < 1 µM
VP1 protein expression ([3]; RD cells): completely blocked
inhibition in plaque assay [4]: no inhibition
inhibition in plaque assay [5]: no inhibition

CNCCNC(=O)c1cc(-c2cccs2)nc2ccccc12 [drawing 192]
EC50 [1, 7]: 0.3 µM
EC50 (EV-A71 Tainan/4643/98; [8]): 8.4 µM
EC50 (EV-A71 US/AK/16-19516): 11.5 µM
EC50 (CVB3; [9]): 0.3 µM
EC50 (EV-D68 US/MO/14-18947; Enterovirus D, EVD68, RD): 0.2 µM

CCCCOc1cc(C(=O)NCCN(CC)CC)c2ccccc2n1 [drawing 195]
EC50 (EV-A71 Tainan/4643/98; [8]): > 10 µM
EC50 (CVB3; [9]): 1.3 µM
CC50 at 3 days ([2]; Vero C1008 cells): 64.4 µM

CCCCOc1cc(C(=O)NCCN(CC)CC)c2ccccc2n1 [dibucaine, reference compound]
VP1 protein expression ([3]; RD cells): no effect
fluorescent signal of VP1 (immunofluorescence) ([3]; 3 μM, 9 hpi, compared to DMSO control): significantly reduced
VP1 expression (western blot) ([3]; 3 μM, RD cells, 9 hpi): nearly completely inhibited
inhibition in plaque assay [4]: no inhibition
inhibition in plaque assay [5]: no inhibition
inhibition of sodium current conductance (sodium channels; 20 μM and 50 μM): potently inhibited

CN(C)CCNC(=O)c1cc(-c2ccccc2)nc2ccccc12 [drawing 181]
EC50 (EV-A71 Tainan/4643/98; [8]): 4.2 µM
EC50 (EV-A71 US/AK/16-19516): > 10 µM
EC50 (CVB3; [9]): 0.3 µM
half-life at 1 μM ([6]; 1 μM, NADPH, read-out: Mouse microsomal stability T1/2): 22.4 min
CLint scaled at 1 μM ([6]; scaled to liver): 14.7 L/h/kg
EC50 (EV-D68 US/MO/14-18947): 0.2 µM
